Results taken from US9725417B2, “Cdc42 inhibitor and uses thereof” (priority 2011, dated 2017).
≈ marks a conversion by molar mass, not a printed value.

Columns and labels:
phosphorylated RhoA = test: Immunofluorescence staining of phosphorylated RhoA in Swiss 3T3 cells; assay type: cell-based, mouse; conditions: 50 uM ZCL278, 10 uM NSC23766 or 1 unit/ml Cdc42 agonist
Experimental: (§1) Immunofluorescent staining: Swiss3T3 cells were grown on coverslips to 30% confluence. In serum-deprived culture, cells were treated with 10 uM NSC23766 or 50 uM ZCL278 for 1 hour followed by 1 unit/mL Cdc42 agonists (Cytoskeleton Products) treatment for 1 minute. Added agonist alone was used as a positive control while DMSO was used as a negative control. Cells on the coverslips were fixed in 4% paraformaldehyde for 15 minutes, and in 0.2% Triton X-100 for permeabilization for 15 minutes and then blocked in 10% BSA for 30 minutes.
(§2) Incubation with antibodies: anti-active Cdc42 (mouse antibody, Neweast Biosciences); phosphorylated RhoA antibody (rabbit antibody, Santa Cruz Biotechnology Company); GM130 antibody (mouse antibody, BD Biosciences Company). The next step was to apply corresponding secondary antibody. Rhodamine, Phalloidin was incubated for 1 hour at room temperature to observe filamentous actin under the Zeiss Axiovert fluorescent light microscopy of cells staining. Image processing software MetaMorph-5 was used to randomly select cells in randomly selected five-point pixels to obtain the average number of each group for pixel intensity values.
(§3) Determination of selective inhibition of Cdc42 activation by ZCL278 at the cellular level. […] FIG. 3C: Pixel intensity of phospho-RhoA in cells after treatments with Activator, ZCL278, or NSC23766 was quantified. […]

active Cdc42 = test: Immunofluorescence staining of active Cdc42 in Swiss 3T3 cells; assay type: cell-based, mouse; conditions: 50 uM ZCL278 or 10 uM NSC23766, Cdc42 agonist 1 unit/ml
Experimental: as §1, §2, §3

GTP-bound (active) Cdc42 = target: T1, GTP-bound (active) Cdc42 (Mus musculus, UniProt P60766); test: G-LISA of GTP-bound (active) Cdc42 in Swiss 3T3 lysates; assay type: cell-based; conditions: then 1 unit/mL Cdc42 activator 2 minutes
T1 construct: endogenous in cells; host or cells: Swiss 3T3 fibroblasts (mouse)
T1 sequence (P60766 whole entry): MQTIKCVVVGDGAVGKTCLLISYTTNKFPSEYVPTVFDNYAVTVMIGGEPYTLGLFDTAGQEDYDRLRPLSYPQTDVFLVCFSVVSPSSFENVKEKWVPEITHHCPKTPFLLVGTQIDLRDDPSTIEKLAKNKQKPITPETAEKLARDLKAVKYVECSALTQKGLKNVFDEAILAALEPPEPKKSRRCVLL
Experimental: Serine 71 phosphorylation can occur on both Rac and Cdc42. To directly assess specific Cdc42 activation and inactivation, a G-LISA, an ELISA-based assay that allows a quantitative determination of the levels of GTP-bound (active) Cdc42 in cellular lysates was utilized. Serum-starved Swiss 3T3 fibroblasts were incubated for 1 hour with 50 μM ZCL278 or 10 μM NSC23766 (Rac inhibitor), followed by 2 minutes of stimulation with 1 unit/mL Cdc42 activator.
Finally, the ability of NSC23766 to cross-inhibit Cdc42 activation was analyzed. NSC23766 was developed in a similar manner as ZCL278; however, it is specific to Rac and should therefore act as an additional negative control in this assay.
G-LiSA kit: Swiss 3T3 cells were cultured to 40% of the growth density, then removed serum and cultured for 48 hours, treated with Cdc42 agonist for 1 minute, and treated with the 50 uM ZCL278 and 10 uM NSC23766. Cell lysis proteins were extracted according to kit instructions, and analysis of the quantification of total protein concentration to be 0.15 mg/ml. Untreated cells or cells treated with buffer were used as negative control while the agonist treated cells and active Cdc42 protein were used as a positive control. Enzyme linked immunosorbent assay measured the absorbance value of each sample 490 nm light wave.

PC-3 cells [1] = test: Wound healing (migration) assay in PC-3 cells; assay type: cell-based, human; conditions: 24 hours; for wound closure: control 41%
Experimental: Filopodia are dynamic structures that aid cells in pathfinding and migration, and are largely controlled by Cdc42 activity. Using a metastatic line of human prostate cancer cells (PC-3), a wound healing assay was used in order to elucidate the effects of ZCL278 on cellular migration. 1 unit/ml Cdc42 activator; 50 uM or 5 uM of ZCL278; and 10 uM […] respectively, were used to treat cells for 24 hours, with Cdc42 activator as positive control, and no treatment as negative control. Cells were photographed at 0 and 24 hours following drug treatments and MetaMorph software was used to determine the distances cells had migrated. Black line indicates the boundary of wounded area. Each experiment was tested with p value (p<0.05).
The experiment was repeated three times and the means were obtained:**; p<0.01,*:p<0.05. Wound closure was less pronounced at 50 μM (8%) than 5 μM (30%) concentrations.

PC-3 cells [2] = test: Trypan blue dye exclusion cell viability in PC-3 cells; assay type: cell-based; conditions: 50 μM ZCL278 or 10 μM NSC23766, 24 hours, PC-3, trypan blue
Experimental: Examination of cell survival: PC3 cells were plated at 75000/ml for 48 hours, serum was removed and 50 uM ZCL278 or 10 uM NSC23766 was added, and then continue to culture for 24 hours before staining with trypan blue to determine cell survival rate.
In order to ensure that decreases in cellular migration seen with ZCL278 treatment was due to Cdc42 inhibition (or Rae inhibition when treated with NSC23766) rather than cell death, cell viability was tested using the trypan blue dye exclusion assay. PC-3 cells were arrested in G0, and then 50 μM ZCL278 or 10 μM NSC23766 was applied for 24 hours. […] Therefore, the differences seen in migratory ability is due to ZCL278-mediated Cdc42 inhibition or NSC23766-mediated Rac inhibition and not cell death.

GM130 = test: GM130-docked Golgi organization in Swiss 3T3 cells; assay type: cell-based, mouse; conditions: 50 uM ZCL278 or 10 uM NSC23766, Swiss 3T3
Experimental: as §1
as §2, with “values. […]” for “values.”

[3] = system: growth cone filopodia of cortical neurons; test: Time-lapse video microscopy of growth cone dynamics in cortical neurons; assay type: cell-based, mouse; conditions: ZCL278 treatment, cortical neuron growth cone
Experimental: (§4) Time-lapsed video light microscopy was used to observe the effects of ZCL278 on neuronal growth cone dynamics, Hamamatsu Orca digital camera was used to record the cell images under 63× magnification for 10 minute. 300 ms exposure for imaging was used to minimize phototoxicity. The images were analyzed using MetaMorph software and statistical analysis was performed. At 5 days cultured in vitro, cortical neurons extended neurites with multiple branches (FIG. 6A, Control). 50 μM of ZCL278 was applied for 5 and 10 minutes, while DMSO-treated neurons were maintained as negative controls.
Cdc42 is also widely known to control filopodia and microspikes at the leading edge of migrating growth cones. […] Thus, these studies further support ZCL278 as an effective small-molecule inhibitor of Cdc42-mediated neuronal branching and growth cone motility.

Cdc42 [4] = target: T2, Cdc42 (Homo sapiens, UniProt P60953); test: Fluorescence titration of purified Cdc42 with ZCL278 (tryptophan fluorescence); assay type: binding; conditions: emission monitored at 350 nm
T2 sequence (P60953 whole entry, species assumed): as the sequence (P60766 whole entry) above
Experimental: The binding affinity of ZCL278 and Cdc42 was assessed by using two independent biophysical methods. First, fluorescence titration of purified Cdc42 ZCL278 was carded out by monitoring the change of fluorescence intensity of a tryptophan residue on CAc42 upon ZCL278 binding. As ZCL278 has a weak absorption peak at 310 nm, to avoid any experimental error that might result from potential fluorescence quenching by ZCL278, the fluorescence emission of Cdc42 was monitored at 350 nm, at which ZCL278 has a negligible absorption. […] These species in solution may have modifying effects on membrane transport and binding to Cdc42.

phospho-WASP = test: Western blot of phospho-WASP in PC-3 cells; assay type: cell-based, human; conditions: 50 μM, up to 15 minutes
Experimental: Wiskott-Aldrich syndrome Protein WASP) is a downstream effector of Cdc42 activation. Tyrosine phosphorylation WASP is linked to rapid Cdc42 degradation following its activation. […] Thus, ZCL278 inhibits Rac/Cdc42 phosphorylation in a time-dependent manner and maintains tyrosine phosphorylation of WASP.
(§5) The Western blot: PC3 cells cultured to approximately 70% of the density, then removed serum and cultured for 16 hours, with addition of drugs: 1 unit/mL Cdc42 agonist (cytoskeleton) 5 uM, 50 uM ZCL278 to treat cells for 5, 10, and 15 minutes respectively. Cell lysis buffer (Formulation: 50 mM Tris buffer solution pH 7.5, 10 mM magnesium chloride, 0.5 M sodium chloride, 1% Triton X-100 and protease inhibitors) cell lysis and centrifuged at 14000 rpm and 4° C. to obtain extracted protein samples. Western blot analysis was conducted using antibody: phosphorylated Rac1/Cdc42 (Milipore Company), phosphorylated WASP (Assay Biotech Company), all at 1:1000, and GAPDH antibody (Calbiochem Company) on PVDF membrane for chemiluminescence development.

phospho-Rac/Cdc42 = test: Western blot of phospho-Rac/Cdc42 (Serine 71) in PC-3 cells; assay type: cell-based, human; conditions: 50 μM for 5, 10 and 15 minutes
Experimental: First, Cdc42 activation was investigated in human metastatic prostate cancer PC-3 cells that were treated with the Cdc42 activator or 50 μM ZCL278 for 5, 10, and 15 minutes. Serine 71 phosphorylation is known to negatively regulate Rac/Cdc42 activity, thus an increase: in phospho-Rac/Cdc42 expression is indicative of a decrease in active (GTP-bound) Rac/Cdc42.
as §5

Cdc42 [5] = target: T2, Cdc42; test: Surface plasmon resonance, purified Cdc42 immobilized on CM5 chips; assay type: binding; conditions: SPR
[6] = system: Cdc42-mediated microspike/filopodia formation in Swiss 3T3 fibroblasts; test: Cdc42-mediated microspike/filopodia formation in serum-starved Swiss 3T3 fibroblasts; assay type: cell-based, mouse; conditions: 50 μM for 1 hour, then Cdc42 activator 2 minutes
Experimental: 30 selected ZCL compounds were assessed for their ability to inhibit Cdc42-mediated microspike/filopodia formation in serum-starved Swiss 3T3 fibroblasts. Actin-based microspikes/filopodia are characteristic of Cdc42 activity in cultured fibroblastic cells. […] When arrested fibroblasts were briefly stimulated with 1 unit/mL of a commercial Cdc42 activator, a dramatic increase in microspike number and decrease in stress fibers occurred (FIG. 2A, Activator). Compound ZCL278 was applied at 50 μM for 1 hour and then stimulated with the Cdc42 activator for 2 minute. The cell periphery of ZCL278-treated cells resembles control cells with few microspikes (FIG. 2A, ZCL278).

[7] = system: primary neonatal cortical neurons; test: Neuronal branching in primary neonatal cortical neurons; assay type: cell-based, mouse; conditions: 50 μM for 5 and 10 minutes, 5 days in vitro
Experimental: Primary neonatal day-one mouse brain was incubated with 0.25% trypsin HBSS for 15 minutes at 37° C., gently separated neurons were plated on poly-L-lysine coated coverslips, incubated with DMEM containing 10% bovine serum for 16 hours, then the media was changed to Neurobasal (Invitrogen). At 5 days in vitro, the cells were treated with either DMSO or 50 uM ZCL278 for 5 or 10 minutes, then fixed in 4% paraformaldehyde for 15 minutes. Fluorescein-phalloidin was applied to stain for F-actin structure and the neuronal morphology was observed under the Zeiss light microscope.
as §4

Solubility determination = assay type: physicochemical

SMILES	pixel intensity of phospho-RhoA (phosphorylated RhoA)	perinuclear distribution and immunoreactivity of active Cdc42 (active Cdc42)	effect on GTP-Cdc42 content (GTP-bound (active) Cdc42; 10 μM NSC23766 1 hour)	cellular migration (PC-3 cells [1]; 10 uM)	cell viability versus non-treated cells (PC-3 cells [2])	GM130 immunoreactivity and distribution (GM130)	time to retraction of filopodia [3] [min]	Kd (Cdc42 [4]) [µM]	phospho-WASP expression (phospho-WASP)	Rac/Cdc42 phosphorylation (Serine 71) (phospho-Rac/Cdc42)	Kd (Cdc42 [5]) [µM]	inhibition of microspike formation [6]	decrease in GTP-Cdc42 content compared with cells treated solely with the activator (GTP-bound (active) Cdc42; 50 μM ZCL278 1 hour) [%]	wound closure (PC-3 cells [1]; 5 μM) [%]	wound closure (PC-3 cells [1]; 50 μM) [%]	neuronal branch number [7]	solubility (Solubility determination) [µM]
CCN(CC)CCCC(C)Nc1nc(C)cc(Nc2ccc3nc(C)cc(N)c3c2)n1 (stereo not drawn) [NSC23766, reference compound]	did not alter the phosphorylation RhoA	did not have similar effects	does not reduce GTP-Cdc42 content	significantly reduced	no difference in viability	did not significantly after GM130 expression or distribution											
Cc1cc(C)nc(NS(=O)(=O)c2ccc(NC(=S)NC(=O)COc3ccc(Br)cc3Cl)cc2)n1 [ZCL278, 4-(3-(2-(4-Bromo-2-chlorophenoxy)acetyl)thioureido)-N-(4,6-dimethylpyrimidin-2yl)benzenesulfonamide]	did not alter the phosphorylation RhoA	obviously reduced this distribution			no difference in viability	clear reduction of GM130 immunoreactivity	≤ 4	6.4	does not suppress phospho-WASP activity	time-dependent increase	11.4	obvious inhibition of microspike formation	~80	30	8	significantly reduced	181 (≈ 106 µg/mL)
